Measured values taken from patent publication US7737180B2, “Use of neboglamine (CR 2249) as an antipsychotic and neuroprotective” (Rottapharm S.p.A., priority 2004, dated 2010).
Marks after values point to notes of the source that are not given here.

Columns and labels:
[1] = system: PCP-induced inhibition of the acoustic prestimulus (PPI); test: Reversion of PCP-induced inhibition of the acoustic prestimulus (PPI) in the rat; assay type: in vivo
Text: The first model used was the study of PCP-induced inhibition of the acoustic prestimulus (PPI) in the rat.
This phenomenon is known as “pre-pulse inhibition” (PPI). […] Such a deficit may be reproduced experimentally with drugs which induce psychotic phenomena, such dopamine agonists and NMDA antagonists.
The method is based on that reported by Swerdlow et al. [J. Pharmacol. Exp. Ther. 256 530-536 (1991)] with slight modifications. An acrylic cylinder is used which is equipped with a piezoelectric sensor mounted under the cylinder which detects and transduces movements of the cylinder. A background noise of 60 dB is provided and subsequently two acoustic stimuli separated by 500 ms, the first of which is 20 dB above the background noise, while the second (startle stimulus) is 120 dB for a duration of 40 ms. The session of 30 trials at 30 second intervals with an overall duration of approx. 15 minutes involved subjecting the animal randomly to a startle stimulus either isolated or preceded by the low intensity stimulus. PPI was calculated as a percentage reduction in the level of startle in the presence of the prestimulus compared to that without the acoustic prestimulus. Rats weighing approx. 250 g were used, which were treated intraperitoneally (i.p.) with the products under investigation 15 minutes prior to subcutaneous (s.c.) administration of 3 mg/kg of PCP and 30 minutes before the beginning of the experiment.

[2] = system: hippocampal ischaemia by bilateral occlusion of the carotid arteries; test: Ischaemia induced in the gerbil by bilateral occlusion of the carotid arteries (hippocampal neuroprotection); assay type: in vivo; conditions: for area (mm2): mean ± SD; for % mortality: ischaemia group 28.57
Experimental: It was accordingly decided to investigate the possible neuroprotective effects of neboglamine and CR 2863 on a model of hippocampal ischaemia brought about in the gerbil by bilateral occlusion of the carotid arteries.
In brief, halothane-anaesthetised animals are subjected to bilateral occlusion of the carotid arteries for 5 minutes. After 7 days, the animals are sacrificed, the brain is removed, deep frozen and 10 μm sections from the hippocampal area are prepared which are stained with cresyl violet. A quantitative determination (in mm^2) of the area occupied by […] pyramidal neurons is then performed by means of an image analyser. The type of hippocampal neurodegeneration arising from this model of ischaemia involves a significant reduction in the area of the neuronal nuclei. The drugs were administered intraperitoneally (i.p.) 1 h before the ischaemia.

[3] = system: PCP-induced depression (swimming test); test: Reversion of PCP-induced depression in the mouse swimming test; assay type: in vivo
Text: An animal model of depression (which may be considered as a negative symptom of schizophrenia) was then used to study the activity of neboglamine on the PCP-induced depressive effects in the mouse using the swimming test according to Porsolt et al. [Arch. Int. Pharmadyn. 229, 327-336 (1977)].
The test involves inducing a state of depression in the animal, which is forced to swim in a glass cylinder from which it cannot escape. The state of depression was accentuated by 14 days' pre-treatment with a daily 10 mg/kg (s.c.) injection of PCP. On the 15th day, the animals were additionally pretreated (i.p.) with physiological solution or neboglamine 30 minutes before the beginning of the test. The duration of immobility (sign of depression) in seconds was evaluated during the experiment of an overall duration of 360 seconds. The results obtained in this manner, calculated between the 3rd and 6th minute of the experiment, i.e. for a period of […], are shown in Table 2.

[4] = system: NMDA-evoked 3H-dopamine release in slices of rat prefrontal cortex; test: PCP-induced blocking of NMDA-evoked 3H-dopamine release in slices of rat frontal cortex; assay type: cell-based
Experimental: Neboglamine's ability to reverse the effect of PCP at a neuronal level was also evaluated in an in vitro test carried out on slices of rat frontal cortex.
The method involved preparing 0.4 mm thick cortical slices, incubating them for 20 minutes with ^3H-dopamine in physiological solution in the presence of 0.1 μM 6-nitroquipazine and 0.1 μM nisoxetine (selective serotonin and noradrenaline reuptake inhibitors), aerated with 95% O2+5% CO2 at 37° C., which, after appropriate washing with artificial cerebrospinal fluid (aCSF), were superperfused for 30 minutes with aCFS at a rate of 1 ml/minute to equilibrate the system. Then, PCP and neboglamine were added at the stated concentrations to the perfusion liquid for the entire duration of the experiment, while, after 45 minutes, NMDA (100 μM) stimulation was provided for 5 minutes. Another four 5 minute fractions of eluate were then collected and their radioactivity determined.
The effect of the drugs was evaluated by calculating the ratio between the percentage radioactivity present in the effluent fraction corresponding to the maximum effect and that in the first effluent fraction collected.

## CC1(C)CCC(N)CC1 [CR 2863, 4,4-dimethylcyclohexylamine]
[1]; rat PPI model
  times less active than the parent (neboglamine): approx. 3 times
[1]; rat, drug 10 mg/kg i.p. 15 min before PCP 3 mg/kg s.c., n=10
  PPI (% inhibition): 38* %
[1]; rat, drug 10 mg/kg i.p. + PCP, calculated by formula
  % inhibition by PCP: 51.4%
[2]; 4 mg/kg i.p.
  % protection: 24.88%
  % mortality: 11.11%
[2]; 4 mg/kg i.p. 1 h before ischaemia, sham 22.39, ischaemia 5.55
  area (mm2): 9.74 ± 0.9*^+ mm2
[2]; 8 mg/kg i.p.
  % protection: 39.25%
  % mortality: 5.88%
[2]; 8 mg/kg i.p. 1 h before ischaemia
  area (mm2): 12.16 ± 5.49 mm2
[2]; 16 mg/kg i.p.
  % protection: 57.82%
[2]; 16 mg/kg i.p. 1 h before ischaemia
  area (mm2): 15.23 ± 5.49*^+ mm2

## c1ccc(C2(N3CCCCC3)CCCCC2)cc1 [PCP, Phenylcyclidine]
[1]; rat, PCP only group, 3 mg/kg s.c., control 55%
  PPI (% inhibition): 20%
[3]; 2 weeks' chronic PCP
  increase of duration of immobility relative to untreated control group: approx. 3 times
[3]; PCP only group, 14 days 10 mg/kg s.c. daily, control 48
  Immobility: 130 s
[4]; NMDA 100 μM + PCP 0.1 μM
  % increase in NMDA-evoked 3H-dopamine release: 64%

## CN[C@H](CC(=O)O)C(=O)O [NMDA]
[4]; Control: NMDA 100 μM alone
  % increase in NMDA-evoked 3H-dopamine release: 120%
